Data as given in PubChem BioAssay AID387.

Target: Farnesyl pyrophosphate synthase (Homo sapiens) (UniProt P14324)
Assay: FDPS binders by thermal shift, biophysical, DSF, SYPRO orange, purified protein (AID 387)
Conditions: at 10 µM, protein 2 µM, buffer 10 mM HEPES, pH 7.5, NaCl 150 mM, MgCl4 50 µM, stronger effect = higher value

Sequence of Farnesyl pyrophosphate synthase (Homo sapiens) (P14324 whole entry, looked up): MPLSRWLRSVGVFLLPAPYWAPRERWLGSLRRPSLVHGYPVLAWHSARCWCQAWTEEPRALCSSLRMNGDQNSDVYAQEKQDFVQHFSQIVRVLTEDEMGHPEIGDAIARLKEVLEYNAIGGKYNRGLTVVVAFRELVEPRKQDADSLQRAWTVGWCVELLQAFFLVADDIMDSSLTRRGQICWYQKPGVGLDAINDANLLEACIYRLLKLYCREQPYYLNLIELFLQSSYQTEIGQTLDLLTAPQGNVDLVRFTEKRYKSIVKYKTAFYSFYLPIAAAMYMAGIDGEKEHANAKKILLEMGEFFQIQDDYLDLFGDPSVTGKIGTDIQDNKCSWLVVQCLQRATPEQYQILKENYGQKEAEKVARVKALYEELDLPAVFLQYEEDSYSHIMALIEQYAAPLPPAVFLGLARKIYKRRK

O=[P+](O)C(O)(Cc1cccnc1)P(=O)(O)O (stereo unspecified)
Tm shift: 4.13 Celsius
